The source of these data is patent publication US7320979B2, “N-[(piperazinyl)hetaryl]arylsulfonamide compounds” (Abbott GmbH & Co. KG., priority 2003, dated 2008).

The target of assay [1] is T1, human dopamine D3 receptors (Homo sapiens, UniProt P35462).
T1 construct: expressed in transfected cells; host or cells: HEK-293
Kind of assay: Dopamine D3 receptor binding, displacement of [125I]-iodosulpride. The following applies: membranes of HEK-293 cells stably expressing human D3 receptors; 0.1 nM [125I]-iodosulpride; 25° C., 60 minutes. Here is the method: (§1) The substance to be tested was either dissolved in methanol/Chremophor® (BASF-AG) or in dimethyl sulfoxide and then diluted with water to the desired concentration.
(§2) Each assay mixture was run in triplicate.
The incubation buffer contained 50 mM tris, 120 mM NaCl, 5 mM KCl, 2 mM CaCl2, 2 mM MgCl2 and 0.1% bovine serum albumin, 10 μM […] and 0.1% ascorbic acid (prepared fresh daily). The buffer was adjusted to pH 7.4 with HCl.
(§3) After having been incubated at 25° C. for 60 minutes, the assay mixtures were filtered through a Whatman GF/B glass fiber filter under vacuum using a cell collecting device. The filters were transferred to scintillation viols using a filter transfer system. After 4 ml of Ultima Gold® (Packard) have been added, the samples were shaken for one hour and the radioactivity was then counted in a Beta-Counter (Packard, Tricarb 2000 or 2200CA). The cpm values were converted into dpm using a standard quench series and the program belonging to the instrument.
(§4) The inhibition curves were analyzed by means of iterative nonlinear regression analysis using the Statistical Analysis System (SAS) which is similar to the “LIGAND” program described by Munson and Rodbard.
For orientation: In a radioligand displacement assay an active substance lowers the binding of a labelled ligand.

The target in assay [2] is T2, human dopamine D2L receptors (long isoform) (Homo sapiens, UniProt P14416).
T2 construct: expressed in transfected cells; host or cells: HEK-293
T2 sequence (P14416 whole entry, canonical isoform): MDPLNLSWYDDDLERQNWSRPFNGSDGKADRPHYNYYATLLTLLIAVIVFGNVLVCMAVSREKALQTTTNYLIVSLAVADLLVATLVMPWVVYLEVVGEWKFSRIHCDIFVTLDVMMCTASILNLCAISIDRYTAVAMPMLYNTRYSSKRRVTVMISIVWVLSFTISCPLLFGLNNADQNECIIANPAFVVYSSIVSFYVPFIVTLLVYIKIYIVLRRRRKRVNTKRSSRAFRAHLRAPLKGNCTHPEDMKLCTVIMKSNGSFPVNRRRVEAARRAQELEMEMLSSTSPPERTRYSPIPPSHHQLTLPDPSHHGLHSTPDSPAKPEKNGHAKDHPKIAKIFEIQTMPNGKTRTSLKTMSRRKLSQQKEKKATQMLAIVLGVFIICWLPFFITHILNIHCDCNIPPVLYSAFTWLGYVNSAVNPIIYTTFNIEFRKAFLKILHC
Kind of assay: Dopamine D2L receptor binding, displacement of [125I] iodospiperone. Particulars: footnote: ratio of the Ki values of the D3 and D2L binding tests. Here is the method: as §1, §2
The incubation buffer contained 50 mM tris, 120 mM NaCl, 5 mM KCl, 2 mM CaCl2, 2 mM MgCl2 and 0.1% bovine serum albumin. The buffer was adjusted to pH 7.4 with HCl.
as §3, §4

pKi: −log10 of the molar value. Structures can show the parent of a compound that is named as a salt.

T1 sequence (P35462 whole entry): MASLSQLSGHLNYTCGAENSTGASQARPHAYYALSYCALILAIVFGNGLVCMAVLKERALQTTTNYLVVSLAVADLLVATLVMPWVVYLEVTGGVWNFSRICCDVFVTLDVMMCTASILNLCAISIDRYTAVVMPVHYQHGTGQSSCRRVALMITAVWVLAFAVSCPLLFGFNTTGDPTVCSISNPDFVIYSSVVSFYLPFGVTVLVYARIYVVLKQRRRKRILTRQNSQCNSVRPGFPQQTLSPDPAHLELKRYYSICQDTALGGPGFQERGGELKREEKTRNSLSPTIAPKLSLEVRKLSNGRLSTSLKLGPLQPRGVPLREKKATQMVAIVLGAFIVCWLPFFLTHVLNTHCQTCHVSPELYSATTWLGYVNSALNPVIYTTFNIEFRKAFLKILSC

Usually pKi stands for the negative decadic logarithm of the Ki, by convention in mol/L. High values mean a low Ki, low ones a high Ki. The compound `C=CCN1CCN(c2ccc(NS(=O)(=O)c3ccc(Cl)cc3)cn2)CC1.Cl` [Example 35, N-[6-(4-Allylpiperazin-1-yl)pyridin-3-yl]-4-chlorobenzenesulfonamide hydrochloride] showed a pKi in assay [1] of 7.58. Further, the “Selectivity vs. D2L” value in assay [2] was determined as 51.
Compound `Cc1cc(N2CCNCC2)ncc1NS(=O)(=O)c1ccc(C(C)C)cc1.Cl` [Example 36, 4-Isopropyl-N-(4-methyl-6-piperazin-1-ylpyridin-3-yl)-benzenesulfonamide hydrochloride] gave a pKi in assay [1] of 8.27. For the same compound, the “Selectivity vs. D2L” value in assay [2] came out at 50.
The like results for `C=CCN1CCN(c2cc(C)c(NS(=O)(=O)c3ccc(C(C)C)cc3)cn2)CC1.Cl` [Example 37, N-[6-(4-Allylpiperazin-1-yl)-4-methylpyridin-3-yl]-4-isopropylbenzenesulfonamide hydrochloride] were, in that order, 8.57 and 86.
The compound `CCCN1CCN(c2cc(C)c(NS(=O)(=O)c3ccc(C(C)C)cc3)cn2)CC1.Cl` [Example 38, 4-Isopropyl-N-[4-methyl-6-(4-propylpiperazin-1-yl)pyridin-3-yl]-benzenesulfonamide hydrochloride] showed a pKi in assay [1] of 7.76. The “Selectivity vs. D2L” value in assay [2] stood at 22.
The like results for `C=Cc1ccc(S(=O)(=O)Nc2cnc(N3CCN(CCC)CC3)cc2C)cc1.Cl` [Example 39, N-[4-Methyl-6-(4-propylpiperazin-1-yl)pyridin-3-yl]-4-vinylbenzenesulfonamide hydrochloride] were, in that order, 7.46 and 30.
The like results for `C=CCN1CCN(c2ccc(NS(=O)(=O)c3ccc(C(C)C)cc3)c(C)n2)CC1` [Example 43] were, in that order, 8.96 and 80.
The like results for `C=CCN1CCN(c2ccc(NS(=O)(=O)c3ccc(C(C)(C)C)cc3)c(C)n2)CC1` [Example 44, 4-tert-Butyl-[N-[2-(4-allylpiperazin-1-yl)-6-methylpyridin-5-yl]-benzenesulfonamide, fumarate] were, in that order, 8.85 and 41.
`C=CCN1CCN(c2ccc(NS(=O)(=O)c3ccc(C(C)(C)CC)cc3)c(C)n2)CC1` [Example 45, 4-tert-pentyl-[N-[2-(4-Allylpiperazin-1-yl)-6-methylpyridin-5-yl]-benzenesulfonamide, Fumarate]: the pKi in assay [1] was 8.85. Further, in assay [2], the “Selectivity vs. D2L” value came out at 24.
The like results for `CCCN1CCN(c2ccc(NS(=O)(=O)c3ccc(CC)cc3)cn2)C[C@@H]1C.Cl` [Example 46, 4-Ethyl-N-[6-((S)-3-methyl-4-propyl-piperazin-1-yl)-pyridin-3-yl]-benzenesulfonamide, hydrochloride] were, in that order, 8.15 and 50.
In the same order, the values of `C=Cc1ccc(S(=O)(=O)Nc2ccc(N3CCN(CCC)[C@@H](C)C3)nc2)cc1.Cl` [Example 47, N-[6-((S)-3-methyl-4-propyl-piperazin-1-yl)-pyridin-3-yl]-4-vinylbenzenesulfonamide, hydrochloride] are 8.21 and 118.
The compound `C=CCN1CCN(c2ccc(NS(=O)(=O)c3ccc(C(C)C)cc3)c(OC)n2)C[C@@H]1C.Cl` [Example 48, N-[6-((S)-4-Allyl-3-methyl-piperazin-1-yl)-2-methoxy-pyridin-3-yl]-4-isopropylbenzenesulfonamide, hydrochloride] gave a negative logarithm of the Ki (pKi) in assay [1] of 9.10. Further, the “Selectivity vs. D2L” value in assay [2] is listed as 21.
In the case of `CCCN1CCN(c2ccc(NS(=O)(=O)c3ccc(C(C)C)cc3)c(OC)n2)C[C@@H]1C.Cl` [Example 49, 4-Isopropyl-N-[2-methoxy-6-((S)-3-methyl-4-propyl-piperazin-1-yl)-pyridin-3-yl]-benzenesulfonamide, hydrochloride], the negative-log Ki (pKi) in assay [1] was 9.40. For the same compound, the “Selectivity vs. D2L” value in assay [2] turned out to be 19.
In the same order, the values of `C=CCN1CCN(c2ccc(NS(=O)(=O)c3ccc(C(C)C)cc3)cn2)C[C@@H]1CC.Cl` [Example 50, N-[6-((S)-4-Allyl-3-ethyl-piperazin-1-yl)-pyridin-3-yl]-4-isopropylbenzenesulfonamide, hydrochloride] are 8.00 and 57.
In the case of `CCCN1CCN(c2ccc(NS(=O)(=O)c3ccc(C(C)C)cc3)cn2)C[C@@H]1CC.Cl` [Example 51, N-[6-((S)-3-Ethyl-4-propyl-piperazin-1-yl)-pyridin-3-yl]-4-isopropylbenzenesulfonamide, hydrochloride], in assay [1], the pKi is 8.51. Further, the “Selectivity vs. D2L” value in assay [2] is recorded as 101.
Take `CC(C)c1ccc(S(=O)(=O)Nc2cnc(N3CCNCC3)nc2)cc1` [Example 52, 4-Isopropyl-N-(2-piperazin-1-yl-pyrimidin-5-yl)-benzenesulfonamide]: the pKi in assay [1] is 7.85. Moreover, the “Selectivity vs. D2L” value in assay [2] was 63.
In the case of `CCN1CCN(c2ncc(NS(=O)(=O)c3ccc(C(C)C)cc3)cn2)CC1.Cl` [Example 53, N-[2-(4-Ethyl-piperazin-1-yl)-pyrimidin-5-yl]-4-isopropylbenzenesulfonamide, hydrochloride], the negative logarithm of the Ki (pKi) in assay [1] is 8.06. In assay [2], the “Selectivity vs. D2L” value is reported as 149.
The like results for `CCN1CCN(c2ncc(NS(=O)(=O)c3ccc(C(C)C)cc3)cn2)C[C@@H]1C.Cl` [Example 54, N-[2-((S)-4-Ethyl-3-methyl-piperazin-1-yl)-pyrimidin-5-yl]-4-isopropylbenzenesulfonamide, hydrochloride] were, in that order, 8.64 and 84.
`C=CCN1CCN(c2ncc(NS(=O)(=O)c3ccc(C(C)C)cc3)cn2)C[C@@H]1C.Cl` [Example 55, N-[2-((S)-4-Allyl-3-methyl-piperazin-1-yl)-pyrimidin-5-yl]-4-isopropyl-benzenesulfonamide, hydrochloride]: the pKi in assay [1] is 8.54. Also, the “Selectivity vs. D2L” value in assay [2] came out at 159.
In the same order, the values of `CCCN1CCN(c2ncc(NS(=O)(=O)c3ccc(C(C)C)cc3)cn2)C[C@@H]1C.Cl` [Example 56, 4-Isopropyl-N-[2-((S)-3-methyl-4-propyl-piperazin-1-yl)-pyrimidin-5-yl]-benzenesulfonamide, hydrochloride] are 8.80 and 399.
In the same order, the values of `CCCN1CCN(c2ncc(NS(=O)(=O)c3ccc(CC)cc3)cn2)C[C@@H]1C.Cl` [Example 57, 4-Ethyl-N-[2-((S)-3-methyl-4-propyl-piperazin-1-yl)-pyrimidin-5-yl]-benzenesulfonamide, hydrochloride] are 8.14 and 234.
In the same order, the values of `C=Cc1ccc(S(=O)(=O)Nc2cnc(N3CCN(CCC)[C@@H](C)C3)nc2)cc1.Cl` [Example 58, N-[2-((S)-3-Methyl-4-propyl-piperazin-1-yl)-pyrimidin-5-yl]-4-vinylbenzenesulfonamide, hydrochloride] are 8.21 and 254.
For `C=CCN1CCN(c2ccc(OS(=O)(=O)c3ccc(C(C)C)cc3)cn2)CC1` [Example 59, 4-Isopropyl-benzenesulfonic acid 6-(4-allyl-piperazin-1-yl)-pyridin-3-yl ester], in assay [1], the pKi was 7.79. Moreover, the “Selectivity vs. D2L” value in assay [2] was 75.
In the same order, the values of `CCCN1CCN(c2ccc(OS(=O)(=O)c3ccc(C(C)C)cc3)cn2)CC1.Cl` [Example 60, 4-Isopropyl-benzenesulfonic acid 6-(4-propyl-piperazin-1-yl)-pyridin-3-yl ester, hydrochloride] are 7.76 and 47.
The like results for “N-[2-(4-Allylpiperazin-1-yl)pyridin-5-yl]-4-(N-pyrrolidinyl)benzenesulfonamide fumarate [Example 42]” were, in that order, 8.28 and 33.
